Test results from patent publication US20240116985A1, “STAPLED PEPTIDES AND METHODS THEREOF” (priority 2020, published 2024).
Values after ≈ are worked out from the molar mass of the structure shown. Read-outs that look alike come from different tables or passages of the source.

What was measured:
Solubility in PBS = assay type: physicochemical
Description: After ultracentrifugation of the PBS solution, the supernatant was analyzed by HPLC and compared to an HPLC injection 50 μM peptide DMSO solution. Solubility was determined by: [(Area of PBS peak)/(Area of DMSO peak)]*50 uM.

CHI Log D procedure = assay type: physicochemical; settings: for chromatographic logD: pH 7.4, CHI Log D
[1] = biological target: T1, beta-catenin/TCF4 engagement (Homo sapiens, UniProt P35222); assay: Nano-BRET target engagement assay (B-cat-Halo & TCF4-Luc in HEK293 cells); assay type: cell-based; settings: read-out: NanoBRET Abs IC50
T1 construct: expressed in transfected cells; host or cells: HEK293
T1 sequence (P35222 1-781): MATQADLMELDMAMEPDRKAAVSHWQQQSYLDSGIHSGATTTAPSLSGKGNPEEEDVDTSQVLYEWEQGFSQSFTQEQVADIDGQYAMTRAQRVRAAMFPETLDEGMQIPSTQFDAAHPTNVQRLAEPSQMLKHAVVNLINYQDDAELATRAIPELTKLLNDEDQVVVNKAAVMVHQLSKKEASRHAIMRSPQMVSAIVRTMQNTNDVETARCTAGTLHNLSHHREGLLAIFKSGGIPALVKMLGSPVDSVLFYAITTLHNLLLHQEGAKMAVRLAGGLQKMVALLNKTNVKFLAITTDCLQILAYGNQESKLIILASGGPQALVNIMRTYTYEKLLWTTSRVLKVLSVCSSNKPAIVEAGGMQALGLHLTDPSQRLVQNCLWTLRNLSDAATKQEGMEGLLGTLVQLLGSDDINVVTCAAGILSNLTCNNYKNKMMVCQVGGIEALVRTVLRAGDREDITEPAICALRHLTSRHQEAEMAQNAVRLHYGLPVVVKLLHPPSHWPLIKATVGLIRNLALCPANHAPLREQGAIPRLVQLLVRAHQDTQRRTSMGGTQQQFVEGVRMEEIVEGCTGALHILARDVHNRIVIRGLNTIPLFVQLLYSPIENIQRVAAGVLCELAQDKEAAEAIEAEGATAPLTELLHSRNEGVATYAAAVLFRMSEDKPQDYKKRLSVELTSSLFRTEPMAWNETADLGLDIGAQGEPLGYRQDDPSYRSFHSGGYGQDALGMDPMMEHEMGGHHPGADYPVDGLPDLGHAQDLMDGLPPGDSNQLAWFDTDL

[2] = biological target: T2, full-length beta-Catenin (Uniprot ID P35222) (Homo sapiens, UniProt P35222); assay: Fluorescence polarization IC50 (beta-catenin / 5FAM-TCF4 10-53 competition); assay type: binding
T2 construct: 10 nM full-length beta-Catenin (Uniprot ID P35222)
T2 sequence (P35222 1-781): T1 sequence (P35222 1-781)

[3] = fluorescence polarization, beta-catenin, read-out: FP EC50

Compound	Solubility (Solubility in PBS) [µM]	chromatographic logD (CHI Log D procedure)	IC50 [1] [nM]	IC50 ([2]; read-out: beta-Catenin FP IC50) [nM]	also measured
CC(=O)N1CCC[C@]12CC=CCCCC1(CCCC=CCCCOC(=O)N3CC[C@@](C(=O)N[C@@H](Cc4ccccc4Cl)C(=O)N[C@@H](Cc4csc5ccccc45)C(=O)N[C@@H](C(N)=O)[C@H](C)O)(C3)NC(=O)[C@H](CO)NC(=O)[C@H](Cc3ccccc3)NC(=O)[C@H](C)NC(=O)[C@H](C)NC(=O)[C@H](CCC(=O)O)NC(=O)[C@H](CC(=O)O)NC1=O)NC(=O)[C@H](CC(C)(C)C)NC(=O)[C@H](CC(=O)O)NC2=O (stereo partly drawn) [I-1036, Ac-PL3-Asp-Npg-B5-Asp-Glu-Ala-Ala-Phe-Ser-PyrS2-2C1F-BztA-dThr-NH2]		2.46	16600	29	
CC(=O)N1CCC[C@]12CC=CCCCC1(CCCC=CCCCOC(=O)N3CC[C@@](C(=O)N[C@@H](Cc4ccccc4Cl)C(=O)N[C@@H](Cc4csc5ccccc45)C(=O)N[C@@H](C(N)=O)[C@H](C)O)(C3)NC(=O)[C@H]([C@@H](C)O)NC(=O)[C@H](Cc3ccccc3)NC(=O)[C@H](C)NC(=O)[C@H](C)NC(=O)[C@H](CCC(=O)O)NC(=O)[C@H](CC(=O)O)NC1=O)NC(=O)[C@H](CC(C)(C)C)NC(=O)[C@H](CC(=O)O)NC2=O (stereo partly drawn) [I-1037, Ac-PL3-Asp-Npg-B5-Asp-Glu-Ala-Ala-Phe-Thr-PyrS2-2C1F-BztA-dThr-NH2]		2.52	4400	30	
CC(=O)N1CCC[C@]12CC=CCCCC1(CCCC=CCCCOC(=O)N3CC[C@@](C(=O)N[C@@H](Cc4ccccc4Cl)C(=O)N[C@@H](Cc4csc5ccccc45)C(=O)N[C@@H](CCC(N)=O)C(N)=O)(C3)NC(=O)[C@H](CC(C)C)NC(=O)[C@H](Cc3ccccc3)NC(=O)[C@H](C)NC(=O)[C@H](C)NC(=O)[C@H](CC(=O)O)NC(=O)[C@H](CC(=O)O)NC1=O)NC(=O)[C@H](CC(C)(C)C)NC(=O)[C@H](CC(=O)O)NC2=O (stereo partly drawn) [I-1062, Ac-PL3-Asp-Npg-B5-Asp-Asp-Ala-Ala-Phe-Leu-PyrS2-2C1F-BztA-Gln-NH2]		1.9	4700	11	IC50 [2, 3]: 393 nM
CC(=O)N1CCC[C@]12CC=CCCCC1(CCCC=CCCCCCC[C@@](C)(C(=O)N[C@@H](Cc3ccccc3Cl)C(=O)N[C@@H](Cc3csc4ccccc34)C(=O)N[C@@H](CCC(N)=O)C(N)=O)NC(=O)[C@H]([C@@H](C)O)NC(=O)[C@H](Cc3ccccc3)NC(=O)[C@H](C)NC(=O)[C@H](C)NC(=O)[C@H](CC(=O)O)NC(=O)[C@H](CC(=O)O)NC1=O)NC(=O)[C@H](CC(C)(C)C)NC(=O)[C@H](CC(=O)O)NC2=O (stereo partly drawn) [I-1086, Ac-PL3-Asp-Npg-B5-Asp-Asp-Ala-Ala-Phe-Thr-S8-2C1F-BztA-Gln-NH2]			10100	12	CHI Log D (CHI Log D procedure; pH 7.4): 2.709; IC50 [2, 3]: 12 nM
CC(=O)N1CCC[C@]12CC=CCCCC1(CCCC=CCCCOC(=O)N3CC[C@@](C(=O)N[C@@H](Cc4ccsc4)C(=O)N[C@@H](Cc4csc5ccccc45)C(=O)N[C@@H](CCC(N)=O)C(N)=O)(C3)NC(=O)[C@H](CC(N)=O)NC(=O)[C@H](Cc3ccccc3)NC(=O)[C@H](C)NC(=O)[C@H](C)NC(=O)[C@H](CN(CC(=O)O)CC(F)(F)F)NC(=O)[C@H](CC(=O)O)NC1=O)NC(=O)[C@H](CC(C)(C)C)NC(=O)C[C@H](CC(=O)O)NC2=O (stereo partly drawn) [I-1161, Ac-PL3-RbGlu-Npg-B5-Asp-TfeGA-Ala-Ala-Phe-Asn-PyrS2-3Thi-BztA-Gln-NH2]		2.08			IC50 ([1]; absolute IC50): > 20000 nM; IC50 ([2]; fluorescence polarization, read-out: beta-Catenin FP IC50): 24 nM

Continued, in another order:

Solubility (Solubility in PBS) [µM]	chromatographic logD (CHI Log D procedure)	IC50 [1] [nM]	IC50 ([2]; read-out: beta-Catenin FP IC50) [nM]	Compound	also measured
10 (≈ 19 µg/mL)				CC(=O)N1CCC[C@]12CC=CCCCC1(CCCC=CCCCOC(=O)N3CC[C@@](C(=O)N[C@@H](Cc4ccccc4)C(=O)N[C@@H](Cc4csc5ccccc45)C(=O)N[C@@H](CCC(N)=O)C(N)=O)(C3)NC(=O)[C@H](CC(C)C)NC(=O)[C@H](Cc3ccccc3)NC(=O)[C@H](C)NC(=O)[C@H](C)NC(=O)[C@H]([C@@H](C)O)NC(=O)[C@H](CC(=O)O)NC1=O)NC(=O)[C@H](CC(C)(C)C)NC(=O)[C@H](CC(N)=O)NC2=O (single isomer, unassigned) [I-1284, Ac-PL3-Asn-Npg-B5-Asp-Thr-Ala-Ala-Phe-Leu-PyrS2-Phe-BztA-Gln-NH2]	
10 (≈ 19 µg/mL)				CC(=O)N1CCC[C@]12CC=CCCCC1(CCCC=CCCCOC(=O)N3CC[C@@](C(=O)N[C@@H](Cc4ccccc4)C(=O)N[C@@H](Cc4csc5ccccc45)C(=O)N[C@@H](CCC(N)=O)C(N)=O)(C3)NC(=O)[C@H](CC(C)C)NC(=O)[C@H](Cc3ccccc3)NC(=O)[C@H](C)NC(=O)[C@H](C)NC(=O)[C@H]([C@@H](C)O)NC(=O)[C@H](CC(=O)O)NC1=O)NC(=O)[C@H](CC(C)(C)C)NC(=O)[C@H](CC(N)=O)NC2=O (single isomer, unassigned) [I-1285, Ac-PL3-Asn-Npg-B5-Asp-Thr-Ala-Ala-Phe-Leu-PyrS2-Phe-BztA-Gln-NH2]	
10 (≈ 18.4 µg/mL)				CC(=O)N1CCC[C@]12CC=CCCCC1(CCCC=CCCCOC(=O)N3CC[C@@](C(=O)N[C@@H](Cc4ccccc4)C(=O)N[C@@H](Cc4csc5ccccc45)C(=O)N[C@@H](CCC(N)=O)C(N)=O)(C3)NC(=O)[C@H](CC(C)C)NC(=O)[C@H](Cc3ccccc3)NC(=O)[C@H](C)NC(=O)[C@H](C)NC(=O)[C@H]([C@@H](C)O)NC(=O)[C@H](CC(=O)O)NC1=O)NC(=O)[C@H](C)NC(=O)[C@H](CC(N)=O)NC2=O (single isomer, unassigned) [I-1286, Ac-PL3-Asn-Ala-B5-Asp-Thr-Ala-Ala-Phe-Leu-PyrS2-Phe-BztA-Gln-NH2]	
10 (≈ 18.4 µg/mL)				CC(=O)N1CCC[C@]12CC=CCCCC1(CCCC=CCCCOC(=O)N3CC[C@@](C(=O)N[C@@H](Cc4ccccc4)C(=O)N[C@@H](Cc4csc5ccccc45)C(=O)N[C@@H](CCC(N)=O)C(N)=O)(C3)NC(=O)[C@H](CC(C)C)NC(=O)[C@H](Cc3ccccc3)NC(=O)[C@H](C)NC(=O)[C@H](C)NC(=O)[C@H]([C@@H](C)O)NC(=O)[C@H](CC(=O)O)NC1=O)NC(=O)[C@H](C)NC(=O)[C@H](CC(N)=O)NC2=O (single isomer, unassigned) [I-1287, Ac-PL3-Asn-Ala-B5-Asp-Thr-Ala-Ala-Phe-Leu-PyrS2-Phe-BztA-Gln-NH2]	
10 (≈ 20 µg/mL)				CC(=O)N1CCC[C@]12CC=CCCCC1(CCCC=CCCCOC(=O)N3CC[C@@](C(=O)N[C@@H](Cc4ccccc4)C(=O)N[C@@H](Cc4csc5ccccc45)C(=O)N[C@@H](CCC(N)=O)C(N)=O)(C3)NC(=O)[C@H](CC(C)C)NC(=O)[C@H](Cc3ccccc3)NC(=O)[C@H](C)NC(=O)[C@H](CCCCNC(C)C)NC(=O)[C@H]([C@@H](C)O)NC(=O)[C@H](CC(=O)O)NC1=O)NC(=O)[C@H](CC(C)(C)C)NC(=O)[C@H](CC(N)=O)NC2=O (single isomer, unassigned) [I-1289, Ac-PL3-Asn-Npg-B5-Asp-Thr-iPrLys-Ala-Phe-Leu-PyrS2-Phe-BztA-Gln-NH2]	
10 (≈ 18.9 µg/mL)				CC(=O)N1CCC[C@]12CC=CCCCC1(CCCC=CCCCOC(=O)N3CC[C@@](C(=O)N[C@@H](Cc4ccccc4)C(=O)N[C@@H](Cc4ccc5ccccc5c4)C(=O)N[C@@H](CCC(N)=O)C(N)=O)(C3)NC(=O)[C@H](CC(C)C)NC(=O)[C@H](Cc3ccccc3)NC(=O)[C@H](C)NC(=O)[C@H](C)NC(=O)[C@H]([C@@H](C)O)NC(=O)[C@H](CC(=O)O)NC1=O)NC(=O)[C@H](CC(C)(C)C)NC(=O)[C@H](CC(N)=O)NC2=O (single isomer, unassigned) [I-1291, Ac-PL3-Asn-Npg-B5-Asp-Thr-Ala-Ala-Phe-Leu-PyrS2-Phe-2NapA-Gln-NH2]	
